This passage reports IC50 results from patent US11739098B2 (BRISTOL-MYERS SQUIBB COMPANY, priority 2017, dated 2023).

Type in all cases: cell-based
The target of one experiment is T1, human TLR7 (Homo sapiens, UniProt Q9NYK1).
T1 construct: host or cells: HEK-Blue cells (HEK293-derived reporter line)
T1 sequence (Q9NYK1 27-1049): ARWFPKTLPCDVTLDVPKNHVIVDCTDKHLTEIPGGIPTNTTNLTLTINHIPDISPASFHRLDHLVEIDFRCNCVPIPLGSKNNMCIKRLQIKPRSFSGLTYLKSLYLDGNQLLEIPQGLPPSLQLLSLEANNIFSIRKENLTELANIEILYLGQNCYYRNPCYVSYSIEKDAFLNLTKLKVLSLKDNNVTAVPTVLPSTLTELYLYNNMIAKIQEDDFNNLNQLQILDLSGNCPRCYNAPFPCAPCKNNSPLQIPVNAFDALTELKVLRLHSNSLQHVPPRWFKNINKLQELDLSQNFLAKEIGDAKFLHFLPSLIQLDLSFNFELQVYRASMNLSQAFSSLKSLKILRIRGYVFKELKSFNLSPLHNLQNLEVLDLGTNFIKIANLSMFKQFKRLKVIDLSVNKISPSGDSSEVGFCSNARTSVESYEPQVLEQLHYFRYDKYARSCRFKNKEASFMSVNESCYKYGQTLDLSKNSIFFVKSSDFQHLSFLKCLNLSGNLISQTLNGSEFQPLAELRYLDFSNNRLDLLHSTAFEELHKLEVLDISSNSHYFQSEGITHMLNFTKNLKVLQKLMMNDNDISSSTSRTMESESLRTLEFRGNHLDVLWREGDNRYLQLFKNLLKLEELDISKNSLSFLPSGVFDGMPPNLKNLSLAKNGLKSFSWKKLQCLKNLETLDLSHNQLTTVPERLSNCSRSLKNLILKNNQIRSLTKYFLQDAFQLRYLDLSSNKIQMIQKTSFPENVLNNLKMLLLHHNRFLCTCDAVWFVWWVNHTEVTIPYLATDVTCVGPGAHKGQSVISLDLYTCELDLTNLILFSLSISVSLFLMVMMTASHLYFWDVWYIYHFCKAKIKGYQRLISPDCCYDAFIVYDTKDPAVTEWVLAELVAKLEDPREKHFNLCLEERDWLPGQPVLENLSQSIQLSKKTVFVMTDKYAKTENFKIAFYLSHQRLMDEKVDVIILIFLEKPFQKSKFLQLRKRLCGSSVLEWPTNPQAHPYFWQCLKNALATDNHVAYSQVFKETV
The experiment is described as follows: TLR7 inhibition reporter assay (HEK-Blue cells, SEAP reporter, gardiquimod stimulation). The following applies: HEK-Blue cells overexpressing human TLR7, SEAP reporter, gardiquimod 7.5 μM. Put shortly: (§1)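 Cells seeded per well (15000 TLR7, 20,000 TLR8, 25,000 TLR9); compound added over 0.05 nM–50 μM for 30 min at room temperature; agonist added (TLR7 gardiquimod 7.5 μM, TLR8 R848 15.9 μM, TLR9 ODN2006 5 nM); 22 h at 37 °C; SEAP measured; percent inhibition calculated.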

For another experiment, the target named is T2, human TLR9 (Homo sapiens, UniProt Q9NR96).
T2 construct: host or cells: HEK-Blue cells (HEK293-derived reporter line)
T2 sequence (Q9NR96 26-1032): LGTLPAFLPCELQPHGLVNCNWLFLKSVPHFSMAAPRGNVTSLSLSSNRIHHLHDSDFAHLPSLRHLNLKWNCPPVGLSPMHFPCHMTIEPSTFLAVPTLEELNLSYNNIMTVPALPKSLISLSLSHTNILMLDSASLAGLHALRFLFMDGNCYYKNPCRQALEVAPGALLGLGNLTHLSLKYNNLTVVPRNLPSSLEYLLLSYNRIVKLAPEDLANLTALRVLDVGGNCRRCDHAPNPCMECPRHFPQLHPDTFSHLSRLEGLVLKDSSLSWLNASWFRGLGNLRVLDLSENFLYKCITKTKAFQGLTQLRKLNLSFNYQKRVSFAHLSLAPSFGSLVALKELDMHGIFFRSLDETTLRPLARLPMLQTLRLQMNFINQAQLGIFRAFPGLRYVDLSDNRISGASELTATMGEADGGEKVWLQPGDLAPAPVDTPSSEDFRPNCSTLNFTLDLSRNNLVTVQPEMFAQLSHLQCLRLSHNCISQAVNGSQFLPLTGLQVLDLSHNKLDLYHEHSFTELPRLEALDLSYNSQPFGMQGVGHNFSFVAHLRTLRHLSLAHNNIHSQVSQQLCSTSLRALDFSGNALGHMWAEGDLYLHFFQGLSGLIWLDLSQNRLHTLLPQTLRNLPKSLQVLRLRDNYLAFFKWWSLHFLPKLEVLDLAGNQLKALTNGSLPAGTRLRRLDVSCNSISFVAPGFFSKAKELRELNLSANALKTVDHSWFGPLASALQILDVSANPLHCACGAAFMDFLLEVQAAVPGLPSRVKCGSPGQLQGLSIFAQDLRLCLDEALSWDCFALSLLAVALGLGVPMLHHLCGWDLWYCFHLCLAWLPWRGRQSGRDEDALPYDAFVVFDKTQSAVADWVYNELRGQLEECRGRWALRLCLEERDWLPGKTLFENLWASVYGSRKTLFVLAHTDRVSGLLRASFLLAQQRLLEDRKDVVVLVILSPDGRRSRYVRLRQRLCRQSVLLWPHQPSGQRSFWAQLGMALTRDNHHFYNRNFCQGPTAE
The experiment is described as follows: TLR9 inhibition reporter assay (HEK-Blue cells, SEAP reporter, ODN2006 stimulation). Conditions: HEK-Blue cells overexpressing human TLR9, SEAP reporter, ODN2006 5 nM. Put shortly:
as §1

The target of a further experiment is T3, human TLR8 (Homo sapiens, UniProt Q9NR97).
T3 construct: host or cells: HEK-Blue cells (HEK293-derived reporter line)
T3 sequence (Q9NR97 27-1041): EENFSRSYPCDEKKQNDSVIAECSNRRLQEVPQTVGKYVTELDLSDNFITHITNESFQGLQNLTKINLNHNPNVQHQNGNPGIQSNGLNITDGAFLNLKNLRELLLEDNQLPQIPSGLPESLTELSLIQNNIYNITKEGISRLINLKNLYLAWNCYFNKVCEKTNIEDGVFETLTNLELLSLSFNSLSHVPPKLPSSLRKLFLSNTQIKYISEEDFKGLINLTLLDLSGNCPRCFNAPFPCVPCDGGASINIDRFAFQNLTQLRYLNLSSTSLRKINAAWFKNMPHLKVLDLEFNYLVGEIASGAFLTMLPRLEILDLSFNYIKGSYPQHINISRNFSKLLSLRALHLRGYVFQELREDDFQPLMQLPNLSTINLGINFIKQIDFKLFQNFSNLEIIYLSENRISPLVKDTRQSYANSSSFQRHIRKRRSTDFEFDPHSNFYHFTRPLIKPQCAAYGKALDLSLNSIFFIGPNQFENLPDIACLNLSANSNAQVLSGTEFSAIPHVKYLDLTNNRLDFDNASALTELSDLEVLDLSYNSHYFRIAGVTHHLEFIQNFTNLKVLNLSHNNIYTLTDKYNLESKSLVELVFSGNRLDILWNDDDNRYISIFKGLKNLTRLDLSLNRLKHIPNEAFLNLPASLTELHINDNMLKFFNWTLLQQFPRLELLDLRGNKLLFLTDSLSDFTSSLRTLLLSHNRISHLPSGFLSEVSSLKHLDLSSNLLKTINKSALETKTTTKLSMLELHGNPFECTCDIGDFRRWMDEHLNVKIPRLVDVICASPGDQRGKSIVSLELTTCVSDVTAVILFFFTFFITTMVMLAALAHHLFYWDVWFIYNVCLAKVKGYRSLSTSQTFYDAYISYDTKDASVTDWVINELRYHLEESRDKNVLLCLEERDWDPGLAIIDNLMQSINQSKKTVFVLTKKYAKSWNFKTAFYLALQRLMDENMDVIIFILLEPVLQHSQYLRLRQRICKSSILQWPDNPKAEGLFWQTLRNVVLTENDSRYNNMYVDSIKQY
The experiment in a line: TLR8 inhibition reporter assay (HEK-Blue cells, SEAP reporter, R848 stimulation). Conditions: HEK-Blue cells overexpressing human TLR8, SEAP reporter, R848 15.9 μM. Put shortly:
as §1

Turning to `CCc1c(-c2ccnc3[nH]ncc23)[nH]c2ccc(C3CCN(Cc4cn[nH]n4)CC3)cc12` [Example 892, 4-(5-(1-((2H-1,2,3-triazol-4-yl)methyl)piperidin-4-yl)-3-ethyl-1H-indol-2-yl)-1H-pyrazolo[3,4-b]pyridine], the 50% inhibitory concentration (IC50) – broadly, the concentration needed to halve the response being measured – was under 100 nM against human TLR7, 1000 to 50000 nM on human TLR9 and under 100 nM on human TLR8.

In the case of `CC(C)c1c(-c2ccnc3[nH]ncc23)[nH]c2ccc(C3CCN(Cc4c[nH]cn4)CC3)cc12` [Example 870, 4-(5-(1-((1H-imidazol-4-yl)methyl)piperidin-4-yl)-3-isopropyl-1H-indol-2-yl)-1H-pyrazolo[3,4-b]pyridine], the half-inhibitory concentration (IC50) is under 100 nM at human TLR7, 100 to 1000 nM on human TLR9 and under 100 nM on human TLR8.

With `Cc1cc(-c2[nH]c3ccc(C4CCN(C5COC5)CC4)cc3c2C(C)C)cc2ncnn12` [Example 727, 7-(3-isopropyl-5-(1-(oxetan-3-yl)piperidin-4-yl)-1H-indol-2-yl)-5-methyl-[1,2,4]triazolo[1,5-a]pyridine], the results for the IC50 against human TLR7, against human TLR9 and on human TLR8 were under 100 nM, 1000 to 50000 nM and under 100 nM, respectively.

Consider `CC(C)N1CCC(c2ccc3[nH]c(-c4ccc5nccn5c4)c(CC(F)F)c3c2)CC1` [Example 948, 6-(3-(2,2-difluoroethyl)-5-(1-isopropylpiperidin-4-yl)-1H-indol-2-yl)imidazo[1,2-a]pyridine], for which the results for the half-maximal inhibitory concentration (IC50) at human TLR7, against human TLR9 and against human TLR8 were under 100 nM, 100 to 1000 nM and 100 to 1000 nM, respectively.

For `Cc1cc(-c2[nH]c3ccc(C4CCN(C(=O)CCN5CCC(F)(F)CC5)CC4)cc3c2C(C)C)cn2nnnc12` [Example 628, 3-(4,4-difluoropiperidin-1-yl)-1-(4-(3-isopropyl-2-(8-methyltetrazolo[1,5-a]pyridin-6-yl)-1H-indol-5-yl)piperidin-1-yl)propan-1-one], the 50% inhibitory concentration (IC50) against human TLR7 is under 100 nM; at human TLR9 it was 1000 to 50000 nM; on human TLR8, under 100 nM.

Take `Cc1cn2cc(-c3[nH]c4ccc(C5CCN(C(=O)C[C@@H](C)O)CC5)cc4c3CC(F)F)ccc2n1` [Example 609, (R)-1-(4-(3-(2,2-difluoroethyl)-2-(2-methylimidazo[1,2-a]pyridin-6-yl)-1H-indol-5-yl)piperidin-1-yl)-3-hydroxybutan-1-one]: the half-inhibitory concentration (IC50) at human TLR7 is 100 to 1000 nM; at human TLR9, 1000 to 50000 nM; against human TLR8, over 3130 nM.

For the compound `CC(C)c1c(-c2ccc(C#N)c3ncccc23)[nH]c2ccc(C3CCN(CCS(C)(=O)=O)CC3)cc12` [Example 796, 5-(3-isopropyl-5-(1-(2-(methylsulfonyl)ethyl)piperidin-4-yl)-1H-indol-2-yl)quinoline-8-carbonitrile], the half-inhibitory concentration (IC50) on human TLR7 is under 100 nM; on human TLR9, 1000 to 50000 nM; against human TLR8, under 100 nM.

For the compound `Cc1cc(-c2[nH]c3ccc(C4CCN(C(=O)CN5CC(C)(C)OC(C)(C)C5)CC4)cc3c2C(C)C)cn2nnnc12` [Example 473, 1-(4-(3-isopropyl-2-(8-methyltetrazolo[1,5-a]pyridin-6-yl)-1H-indol-5-yl)piperidin-1-yl)-2-(2,2,6,6-tetramethylmorpholino)ethan-1-one], the figures for the IC50 on human TLR7, against human TLR9 and on human TLR8 were under 100 nM, over 50000 nM and 100 to 1000 nM, respectively.

As for `Cc1cc(-c2[nH]c3ccc(C4CCN(C5COC5)CC4)cc3c2C(C)C)cn2nnnc12` [Example 741, 6-(3-isopropyl-5-(1-(oxetan-3-yl)piperidin-4-yl)-1H-indol-2-yl)-8-methyltetrazolo[1,5-a]pyridine], the IC50 at human TLR7 is under 100 nM; against human TLR9 it was 1000 to 50000 nM; at human TLR8 it was under 100 nM.

For the compound `CC(C)c1c(-c2cnc3cn[nH]c3c2)[nH]c2ccc(C3CCNCC3)cc12` [Example 63, 6-(3-isopropyl-5-(piperidin-4-yl)-1H-indol-2-yl)-1H-pyrazolo[4,3-b]pyridine], the 50% inhibitory concentration (IC50) on human TLR7 was under 100 nM; against human TLR9 it was 100 to 1000 nM; against human TLR8 it was under 100 nM.

As to `CCN1CCC(N2CCC(c3ccc4[nH]c(-c5ccnc6[nH]ccc56)c(C)c4c3)CC2)CC1` [Example 811, 4-(5-(1′-ethyl-[1,4′-bipiperidin]-4-yl)-3-methyl-1H-indol-2-yl)-1H-pyrrolo[2,3-b]pyridine], the IC50 against human TLR7, at human TLR9 and at human TLR8 was under 100 nM each time.

With `CNC(=O)CN1CCC(c2ccc3[nH]c(-c4ccc5ncnn5n4)c(C(C)C)c3c2)CC1` [Example 277, 2-(4-(2-([1,2,4]triazolo[1,5-b]pyridazin-6-yl)-3-isopropyl-1H-indol-5-yl)piperidin-1-yl)-N-methylacetamide], the IC50 was under 100 nM at human TLR7, 1000 to 50000 nM against human TLR9 and under 100 nM at human TLR8.

With `Cc1cc2nnnn2cc1-c1[nH]c2ccc(C3CCN(C4CCS(=O)(=O)CC4)CC3)cc2c1C(C)C` [Example 791, 4-(4-(3-isopropyl-2-(7-methyltetrazolo[1,5-a]pyridin-6-yl)-1H-indol-5-yl)piperidin-1-yl)tetrahydro-2H-thiopyran 1,1-dioxide], the concentration for half-maximal inhibition (IC50) was under 100 nM against human TLR7, 1000 to 50000 nM against human TLR9 and under 100 nM against human TLR8.
